From ChEMBL document CHEMBL3046579, “Synthesis, anticancer and MRP1 inhibitory activities of 4-alkyl/aryl-3,5-bis(carboethoxy/carbomethoxy)-1,4-dihydro-2,6-dimethylpyridines” (Med Chem Res, 2013)

How the values were obtained:
[1] = biological target: T1, Multidrug resistance-associated protein 1 (Homo sapiens, UniProt P33527); test: Inhibition of Homo sapiens (human) MRP1 expressed in Sf9 cell membranes assessed as decrease in N-ethyl-maleimide-glutathione-induced inorganic phosphate production at 1 to 1000 uM by spectrophotometric analysis in presence of glutathione
HT-29 = test: Cytotoxicity against Homo sapiens (human) HT-29 cells assessed as cell viability after 48 hr by MTT assay; assay type: functional, cell-based
[2] = Cytotoxicity against Homo sapiens (human) MDA-MB cells assessed as cell viability after 48 hr by MTT assay; assay type: functional, cell-based
[3] = biological target: T1, Multidrug resistance-associated protein 1; test: Inhibition of Homo sapiens (human) MRP1 expressed in Sf9 cell membranes assessed as decrease in N-ethyl-maleimide-glutathione-induced inorganic phosphate production by spectrophotometric analysis in presence of glutathione
MRP1 [4] = biological target: T2, MRP1 (Homo sapiens, UniProt P33527); test: Inhibition of Homo sapiens (human) MRP1 expressed in Sf9 cell membranes assessed as decrease in N-ethyl-maleimide-glutathione-induced inorganic phosphate production at 50 uM by spectrophotometric analysis in presence of glutathione relative to control; settings: Sf9 cell membranes expressing human MRP1, probe N-ethyl-maleimide-glutathione, read-out: Imax
MRP1 [5] = biological target: T2, MRP1; test: Inhibition of Homo sapiens (human) MRP1 expressed in Sf9 cell membranes assessed as decrease in N-ethyl-maleimide-glutathione-induced inorganic phosphate production at 10 uM by spectrophotometric analysis in presence of glutathione relative to control; settings: Sf9 cell membranes expressing human MRP1, probe N-ethyl-maleimide-glutathione
[6] = Cytotoxicity against Homo sapiens (human) HSG cells; assay type: functional, cell-based
HSC-2 = test: Cytotoxicity against Homo sapiens (human) HSC2 cells; assay type: functional, cell-based
[7] = Homo sapiens, MDA-MB, 48 h, read-out: IC50
[8] = Homo sapiens, HT-29, 48 h, read-out: IC50

T1 sequence (P33527 whole entry): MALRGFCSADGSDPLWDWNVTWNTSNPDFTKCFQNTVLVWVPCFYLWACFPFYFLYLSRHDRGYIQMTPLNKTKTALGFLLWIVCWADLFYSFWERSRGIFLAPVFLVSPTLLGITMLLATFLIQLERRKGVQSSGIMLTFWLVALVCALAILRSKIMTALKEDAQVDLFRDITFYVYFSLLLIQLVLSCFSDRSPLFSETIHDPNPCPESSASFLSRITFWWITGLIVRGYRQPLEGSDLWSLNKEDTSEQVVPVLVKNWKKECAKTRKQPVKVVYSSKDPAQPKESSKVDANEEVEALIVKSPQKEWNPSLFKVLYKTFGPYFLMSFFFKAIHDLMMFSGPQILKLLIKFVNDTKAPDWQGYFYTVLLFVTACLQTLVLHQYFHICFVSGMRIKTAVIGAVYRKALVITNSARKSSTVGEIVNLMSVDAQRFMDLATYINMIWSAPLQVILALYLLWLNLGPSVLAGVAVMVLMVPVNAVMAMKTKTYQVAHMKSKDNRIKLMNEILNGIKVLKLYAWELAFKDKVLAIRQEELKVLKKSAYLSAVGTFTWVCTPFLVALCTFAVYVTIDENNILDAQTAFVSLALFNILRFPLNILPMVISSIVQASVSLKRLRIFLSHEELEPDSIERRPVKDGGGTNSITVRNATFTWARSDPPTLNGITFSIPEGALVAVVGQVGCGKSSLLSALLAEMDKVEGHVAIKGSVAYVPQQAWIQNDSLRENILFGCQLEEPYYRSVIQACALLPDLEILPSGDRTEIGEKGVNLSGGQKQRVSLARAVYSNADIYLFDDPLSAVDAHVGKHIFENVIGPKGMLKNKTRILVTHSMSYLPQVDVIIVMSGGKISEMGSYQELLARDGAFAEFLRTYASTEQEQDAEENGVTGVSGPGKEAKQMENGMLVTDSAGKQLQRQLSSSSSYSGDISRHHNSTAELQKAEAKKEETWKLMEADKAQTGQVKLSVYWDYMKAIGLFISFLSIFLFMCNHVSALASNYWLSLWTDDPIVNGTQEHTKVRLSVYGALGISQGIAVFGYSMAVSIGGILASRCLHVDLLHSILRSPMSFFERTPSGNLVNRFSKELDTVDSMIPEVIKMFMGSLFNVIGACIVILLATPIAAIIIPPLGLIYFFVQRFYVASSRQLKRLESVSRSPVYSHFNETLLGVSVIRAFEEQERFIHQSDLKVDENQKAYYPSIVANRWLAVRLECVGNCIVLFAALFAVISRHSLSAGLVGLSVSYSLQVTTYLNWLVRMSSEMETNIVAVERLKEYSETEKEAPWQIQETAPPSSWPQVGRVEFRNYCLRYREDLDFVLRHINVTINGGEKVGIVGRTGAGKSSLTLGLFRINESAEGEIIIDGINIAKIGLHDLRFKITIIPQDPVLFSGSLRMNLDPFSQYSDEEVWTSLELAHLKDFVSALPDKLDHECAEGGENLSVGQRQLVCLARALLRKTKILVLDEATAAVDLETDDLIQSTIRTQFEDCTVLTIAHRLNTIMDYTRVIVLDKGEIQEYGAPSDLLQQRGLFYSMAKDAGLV
T2 sequence (P33527 whole entry): as above

inhibition (INH) [1] | SMILES | IC50 (HT-29; ht-29) | IC50 [2, 7] [µM] | IC50 ([2]; mda-mb) | IC50 (HT-29; [8]) [µM] | also measured
Not Active | CCCC1C(C(=O)OCC)=C(C)NC(C)=C1C(=O)OCC | Not Active | 500 | – | – | –
– | CCOC(=O)C1=C(C)NC(C)=C(C(=O)OCC)C1c1ccccc1 | Not Active | – | Not Active | – | –
Not Active | CCOC(=O)C1=C(C)NC(C)=C(C(=O)OCC)C1c1cccc([N+](=O)[O-])c1 | – | 244 | – | 500 | –
– | CCOC(=O)C1=C(C)NC(C)=C(C(=O)OCC)C1c1ccc(Cl)cc1 | – | 268 | – | 262 | IC50 [3]: 16 µM; inhibition at 50 µM (MRP1 [4]): 65%; inhibition at 10 µM (MRP1 [5]): 47%
– | CCOC(=O)C1=C(C)NC(C)=C(C(=O)OCC)C1c1ccc(C)cc1 | – | 500 | – | 310 | –
Not Active | COC(=O)C1=C(C)NC(C)=C(C(=O)OC)C1c1ccc(Cl)cc1 | Not Active | 460 | – | – | –
– | COC(=O)C1=C(C)NC(C)=C(C(=O)OC)C1c1ccc(OC)cc1 | – | – | Not Active | 452 | –
Not Active | CCOC(=O)C1=C(C)NC(C)=C(C(=O)OCC)C1c1ccc(OC)cc1 | Not Active | 331 | – | – | –
– | COC(=O)C1=C(C)NC(C)=C(C(=O)OC)C1c1ccccc1 | Not Active | – | Not Active | – | –
Not Active | CCCCC1C(C(=O)OCC)=C(C)NC(C)=C1C(=O)OCC | Not Active | 350 | – | – | –
– | CCCC1C(C(=O)OC)=C(C)NC(C)=C1C(=O)OC | Not Active | – | Not Active | – | –
– | CCCCC1C(C(=O)OC)=C(C)NC(C)=C1C(=O)OC | – | – | Not Active | 500 | –
Not Active | COC(=O)C1=C(C)NC(C)=C(C(=O)OC)C1c1ccc(C)cc1 | Not Active | 500 | – | – | –
– | CC1=C(C(=O)c2ccccc2)C(c2ccccc2C(F)(F)F)C(C(=O)c2ccccc2)=C(C)N1 | – | – | – | – | IC50 [6]: 8.7 µM; IC50 (HSC-2): 8.7 µM
– | CC1=C(C(=O)c2ccccc2)C(c2ccccc2Cl)C(C(=O)c2ccccc2)=C(C)N1 | – | – | – | – | IC50 [6]: 28 µM; IC50 (HSC-2): 7 µM
